Laboratory results reported in publication PMC12817916, “A small-molecule HSP90 inhibitor, NVP-HSP990, alleviates rotavirus infection” (Journal of Virology, 2025).

System: RV (Wa or SA11 strains)
Assay: RV replication in Caco-2 cells at varying MOI and timing of drug addition (PFA)
Assay type: cell-based, Rotavirus
Experimental: Rhesus monkey embryo kidney cell line MA104 cells (ATCC: CRL-2378.1) were provided by Dr. Elschner (Friedrich-Loeffler-Institute). Human intestinal epithelial cell lines Caco-2 cells (ATCC: HTB-37) and HT-29 cells (ATCC: HTB-38) were from ATCC and kept in our institute. All the cells were cultured in complete DMEM (Dulbecco’s modified Eagle medium [Gibco, USA] plus 10% [vol/vol] fetal bovine serum [FBS] [Gibco, USA] and 1% penicillin/streptomycin [Gibco, USA]) at 37°C with 5% CO2. RV Wa (G1P[8]) and SA11 (G3P[2]) strains were gifted by Professor Duan Zhaojun from the China Center for Disease Control and Prevention (Beijing, China) and propagated in MA104 cells. RV EDIM strain G16P[16] was gifted by Professor Wan Jianwei in Christophe Merieux Laboratory (Beijing) and propagated in BALB/c suckling mice. For RV infection in vitro, the viruses were diluted in DMEM, activated with 10 µg/mL trypsin (Gibco, USA) for 30 min at 37°C, and then added to target cells previously washed once with DMEM. After 1 h of incubation at 37°C, the inoculum was removed; the cells were then washed twice with DMEM (without FBS) and incubated with DMEM (without FBS) at 37°C, which was denoted as 0 h post-infection (h p.i.). HSP90 inhibitors (NVP-HSP990, GA, and 17-AAG) and Ribavirin (Selleck, USA) were dissolved in DMSO (Sigma, USA). The drugs were administered with indicated concentrations at 0 h p.i. in vitro unless otherwise stated, or orally administered in 10 µL volume using a pipette tip with the indicated quantity plus 90% (vol/vol) corn oil.
(A) Caco-2 cells were infected with RV (Wa or SA11 strains) at varying MOIs (0.001–10), followed by treatment with 100 nM NVP-HSP990 or an equal volume of DMSO (as a control) for 24 h. Viral replication was assessed using PFA. (B) Schematic diagram illustrating the timing of NVP-HSP990 addition and removal. (C) Caco-2 cells were infected with RV (MOI = 1) and treated with 100 nM NVP-HSP990 or with DMSO as control at indicated infection periods as shown in panel B. Viral replication was tested with PFA at 20 h p.i. (D) Caco-2 cells were infected with RV (MOI = 1) and treated with 100 nM HSP990 at 0, 4, 8, 12 h p.i. or treated with DMSO at 0 h p.i. Virus replication was tested with PFA at 24 h p.i. (E) Caco-2 cells were infected with RV (MOI = 1) and further cultivated with DMEM containing 100 nM NVP-HSP990 or DMSO as control for 18 h. Then the infected cells were harvested for qPCR analysis of the expression of RV genes encoding the VP2, VP6, NSP4, and NSP5 proteins. (F) Caco-2 cells were mock-infected with PBS or infected with RV (MOI = 1) and further cultivated with DMEM containing 100 nM NVP-HSP990 or DMSO as control for 18 h. Then the cells were harvested for WB analysis of RV structural proteins VP6 and VP7. […]

COc1cccc(-c2cc(F)ccc2[C@H]2Cc3nc(N)nc(C)c3C(=O)N2)n1 [NVP-HSP990]
inhibitory effect on RV replication (100 nM, administered after RV infection (0 ~ 20 h p.i.), PFA at 20 h p.i.): ~100 fold
reduction of final level of RV replication (100 nM, administered during RV infection (−1 ~ 0 h p.i.), PFA at 20 h p.i.): ~ 1 fold
inhibition of RV replication across MOIs (Wa or SA11, MOI 0.001 to 10, 100 nM, 24 h p.i., PFA): Robust inhibition
establishment of RV infection or subsequent viral replication (pre-treatment prior to RV infection (−2 ~ −1 h p.i.)): did not significantly interfere
